Experimental data published in the NIST ThermoML archive (doi:10.1021/je0302147).
Numbers after ± are expanded uncertainties.

Tests used:
[1] = 298.15 K, 101.33 kPa, Liquid; for speed of sound: Sing-around technique in a fixed-path interferometer
[2] = refractive index (Na D-line) (dimensionless); conditions: 298.15 K, 101.33 kPa, Liquid

| SMILES | speed of sound [1] | mass density ([1]; Vibrating tube method) | refractive index [2] | mass density [1] | refractive index ([2]; Standard Abbe refractometry) |
| --- | --- | --- | --- | --- | --- |
| CCOC(C)(C)CC [1,1-dimethylpropyl ethyl ether] | 1096 ± 2 m/s | 760.5 kg/m3 | 1.38857 | – | – |
| CCCCCCCC[n+]1ccn(C)c1.[Cl-] [1-methyl-3-octylimidazolium chloride] | 1382 ± 4 m/s | – | – | 1007 ± 1.6 kg/m3 | 1.5058 ± 0.00069 |
| CCO [ethanol] | 1143 ± 2 m/s | 785.22 kg/m3 | 1.3592 | – | – |
